How the values were obtained:
[1] = Compound evaluated for their ability to phosphorylate eIF2R; assay type: functional; design: unit not given here
[2] = tested on: Lung cancer cell line; test: In vitro anticancer activity against human lung cancer cell line; assay type: functional

Compound	Activity [1]	GI50 [2]
O=C1Nc2ccccc2C1(c1ccccc1)c1ccccc1O (stereo not given)	0.56	
O=C1Nc2cc(Br)ccc2C1(c1ccccc1)c1ccccc1	0.89	
COc1ccccc1C1(c2ccccc2)C(=O)Nc2ccccc21 (stereo not given)	0.48	
CC(C)(C)c1ccc(C2(c3ccc(O)cc3)C(=O)Nc3ccccc32)cc1 (stereo not given)	2.01	14 µM
O=C1Nc2ccccc2C1(c1ccccc1)c1ccccc1	1	13 µM
CC(C)(C)c1cccc(C2(c3ccccc3)C(=O)Nc3ccccc32)c1 (stereo not given)	1.04	4 µM
O=C1Nc2ccc(Cl)cc2C1(c1ccccc1)c1ccccc1	0.61	
CN1C(=O)C(c2ccccc2)(c2ccccc2)c2ccccc21		> 20 µM
CC(C)(C)c1ccc(O)c(C2(c3ccccc3)C(=O)Nc3ccc(I)cc32)c1 (stereo not given)	1.4	
O=C1Nc2ccc(Br)cc2C1(c1ccccc1)c1ccccc1	0.79	
O=C1Nc2cccc(Br)c2C1(c1ccccc1)c1ccccc1	0.84	
O=C1Nc2ccc(I)cc2C1(c1ccccc1)c1ccccc1	1.31	8 µM
COc1ccccc1C1(c2ccc(C(C)(C)C)cc2)C(=O)Nc2ccccc21 (stereo not given)	0.93	
CC(C)(C)c1ccc(O)c(C2(c3ccccc3)C(=O)Nc3ccccc32)c1 (stereo not given)	2	4 µM
CCc1ccc2c(c1)C(c1ccccc1)(c1ccccc1)C(=O)N2	0.85	> 20 µM
CC(C)(C)c1ccc(C2(c3ccccc3O)C(=O)Nc3ccccc32)cc1 (stereo not given)	1.33	7 µM
O=C1Nc2ccc(S(=O)(=O)O)cc2C1(c1ccccc1)c1ccccc1		9 µM
O=C1Nc2ccc(F)cc2C1(c1ccccc1)c1ccccc1	0.44	
O=C1Nc2ccc([N+](=O)[O-])cc2C1(c1ccccc1)c1ccccc1	1.2	14 µM
O=C1Nc2ccccc2C1(c1ccccc1)c1ccc(O)cc1 (stereo not given)	0.86	
CC(C)(C)c1ccc(C2(c3ccccc3)C(=O)Nc3ccccc32)cc1 (stereo not given)	0.95	8 µM

Reference: ChEMBL document CHEMBL1149133, “3,3-diaryl-1,3-dihydroindol-2-ones as antiproliferatives mediated by translation initiation inhibition” (2004)
